Data taken from patent US20230035057A1, “METHOD OF TREATMENT OF SLEEP APNEA” (PRIMAVERA BIOSCIENCES, INC., priority 2021, published 2023).

System: sleep apnea patient
Test: Oxygen saturation (SpO2) monitoring during sleep with Wellure's O2Ring in a sleep apnea patient
Assay type: in vivo
Excerpt: FIG. 1 is a diagram showing sleep apnea patient's oxygen saturation levels (SpO2). Oxygen saturation levels (SpO2) in the blood during sleep were monitored using Wellure's O2Ring.
(§1) Oxygen saturation levels (SpO2) in the blood during sleep were monitored using Wellure's O2Ring.
as §1

CN[C@@H](C)[C@H](O)c1ccccc1 [ephedrine]
breathing problems observed in FIG. 1 (FIG. 2, 25 mg ephedrine one hour before bed plus Avinol PM, in the first three hours, came back afterwards): greatly reduced
sleep apnea patient's oxygen saturation levels (SpO2) (FIG. 2, 25 mg of ephedrine one hour before going to bed along with sleeping pill Avinol PM just before going to bed): improved
sleep apnea patient's oxygen saturation levels (SpO2) (FIG. 3, 25 mg ephedrine one hour before bed plus one tablet Avinol PM just before bed, another 25 mg ephedrine three hours after going to bed): improved
breathing problems caused by sleep apnea (general statement, dose not given): reduces
